This note sets out measurements from patent US20100204134A1, “USE OF THE PEPTIDE HIS-SER-LEU-GLY-LYS-TRP-LEU-GLY-HIS-PRO-ASP-LYS-PHE ALONE OR IN COMBINATION WITH THE PEPTIDE GLY-ARD-GLY-ASP-ASN-PRO-OH AS A THERAPEUTIC AGENT” (priority 2007, published 2010).

No end group written: not given here.

The test system of one experiment is HIV-1IIIB. Nature of the experiment: HIV-1 antiviral assay in CEM-SS cells. It is filed as cell-based.
A further experiment relates to HCMV strain AD169. Nature of the experiment: HCMV plaque formation assay. Particulars: MRC-5 cells; for inhibition of HCMV plaque formation as compared to the virus control: 10 micrograms per ml, 7-10 days.
Experiment [1] concerns hepatitis B virus (HBV) ayw strain. The experiment can be described thus: HBV experimental assay system (secreted HBV DNA, TaqMan PCR). It is filed as cell-based. Particulars: 10 micrograms per ml; HepG2-2.2.15; six days; HBV DNA in supernatant. A general note: In qPCR the cycle at which signal appears reflects the starting amount.
The next experiment deals with murine spleen cells. The experiment can be described thus: Th1/Th2 cytokine profiling assay. Conditions: 10 micrograms per ml; Ovalbumin restimulation; 72 hours.
In the next experiment the test system is Streptococcus pneumoniae. The experiment can be described thus: Streptococcus pneumoniae assay. Conditions: 10 micrograms per ml; 5×10^5 CFU/mL.
The test system of the next experiment is HUVEC. Nature of the experiment: Endothelial tube formation assay. Particulars: 10 micrograms per ml; 20 hours.
Experiment [2] deals with Primary Human endothelial cells (HUVEC). The experiment can be described thus: Endothelial cell migration assay. Conditions: 10 micrograms per ml; 22 hours. It is filed as cell-based.
Method: Primary Human endothelial cells (HUVEC) were seeded in insert chambers with 3 micrometer pore size of multi-transwell plate for 6 hours at 37° C. in Endothelial Cell Basal Medium (EBM) supplemented with 0.1% bovine serum albumin. Thereafter, designated concentration of test peptides—10 micrograms per ml—was added in duplicate wells. The endothelia were allowed to migrate for 22 hours at 37° C., then, migrated cells were fixed and stained with Hoechst 33342 dye. Images of 3 fields per insert were taken and the number of migrated cells per field were quantified using the ImageProPlus software. Data were analyzed for the average number of the migrated cells and standard deviation of six data points for each treatment condition. […] Statistic p values were computed using the Student's t-test.

From the text for murine spleen cells: The Balb/c mice (originated in 1923, it is a popular strain and is used in many different research disciplines. Also classified as an inbred from the production of 20 or more successive brother-sister matings, the Balb/c mouse is albino and small in size) were immunized on Days 1, 15, and 29 with Ovalbumin (Ovalbumin is the main protein found in egg white, commonly used to stimulate an immunological reaction in test animals) in PBS (5 micrograms/injection). On day 50, spleens of the mice were harvested (3 weeks after last boost with Ovalbumin). […] Thereafter, additional Ovalbumin was added to the cells at 10 micrograms/ml for in vitro restimulation of the cells. 72 hours later, cell supernatants were harvested and assayed using the Becton Dickinson Mouse Th1/Th2 Cytokine CBA Kit. This kit can be used to measure Interleukin-2 (IL-2), Interleukin-4 (IL-4), Interleukin-5 (IL-5), Interferon-γ (IFN-γ), and Tumor Necrosis Factor-α (TNF-α) protein levels in a single sample.

Consider `Cc1cn([C@H]2C[C@H](N=[N+]=[N-])[C@@H](CO)O2)c(=O)[nH]c1=O` [AZT], for which the “antiviral activity of positive control compounds” value in the experiment with HIV-1IIIB is listed as “expected levels of antiviral activity”.

On to `Nc1nc(O)c2ncn(COC(CO)CO)c2n1` [Ganciclovir, reference compound], for which the “antiviral activity of positive control compound” value with HCMV strain AD169 (positive control, HCMV) is “expected levels of antiviral activity”.

For the compound `CC(C)(C)NC(=O)[C@@H]1CN(Cc2cccnc2)CCN1C[C@@H](O)C[C@@H](Cc1ccccc1)C(=O)N[C@H]1c2ccccc2C[C@H]1O` [indinavir], in the experiment on HIV-1IIIB, the “antiviral activity of positive control compounds” value is reported as “expected levels of antiviral activity”.

Turning to “Gly-Arg-Gly-Asp-Asn-Pro-OH (GRGDNP-OH) [Peptide 2]”, the “inhibition of HBV replication as compared to the virus control infection” value in experiment [1] is given as 36.4%. In the experiment on murine spleen cells, the “change of the production of IFN-γ” value is recorded as “did not significantly change”, the “change of the production of IL-5” value was “did not significantly change”, the “induction of the production of IL-2” value was determined as 58.8% and the “induction of the production of IL-4” value stood at 55.6%. In the experiment with murine spleen cells, the “induction of the production of TNF-alpha” value turned out to be 23.7%. The “inhibition of HCMV plaque formation as compared to the virus control” value in the experiment with HCMV strain AD169 is on record as “did not inhibit”. Further, the “inhibition of the growth of Streptococcus pneumoniae” value with Streptococcus pneumoniae stood at 100%. For the same compound, the “increase of the tube formation of endothelial cells” value in the experiment with HUVEC is 6%.

For the compound “His-Ser-Leu-Gly-Lys-Trp-Leu-Gly-His-Pro-Asp-Lys-Phe (HSLGKWLGHPDKF; printed: His-Ser-Leu-Gly-Lys-Trp-Leu-Gly-His-Pro-Asp-Lys-Phe) [Peptide 1]”, in the experiment on murine spleen cells, the “change of the production of IFN-γ” value was “did not significantly change”, the “change of the production of IL-5” value is reported as “did not significantly change”, the “induction of the production of IL-2” value is reported as 106.5% and the “induction of the production of IL-4” value turned out to be 117.8%. Moreover, the “induction of the production of TNF-alpha” value with murine spleen cells is 21.2%. The “inhibition of HCMV plaque formation as compared to the virus control” value in the experiment on HCMV strain AD169 was “did not inhibit”. Also, the “inhibition of the migration of human endothelial cells” value in experiment [2] is listed as 12%. In addition, the “inhibition of the growth of Streptococcus pneumoniae” value with Streptococcus pneumoniae is 100%. In addition, the “inhibition of the tube formation of human endothelial cells” value with HUVEC was determined as 10%.
